Data taken from article PMC11472328, “Targeting Plasmodium falciparum IspD in the Methyl-D-erythritol Phosphate Pathway: Urea-Based Compounds with Nanomolar Potency on Target and Low-Micromolar Whole-Cell Activity” (Journal of Medicinal Chemistry, 2024).
Values after ≈ are worked out from the molar mass of the structure shown. Where two headings read alike, the source gives them in different places.

Tests used:
[1] = molecular target: PK-LDH; test: Activity against auxiliary enzymes PK-LDH; format: biochemical
[2] = molecular target: EcIspE (Escherichia coli, UniProt P62615); test: Activity against auxiliary enzyme EcIspE; format: biochemical
Sequence of EcIspE (P62615 whole entry): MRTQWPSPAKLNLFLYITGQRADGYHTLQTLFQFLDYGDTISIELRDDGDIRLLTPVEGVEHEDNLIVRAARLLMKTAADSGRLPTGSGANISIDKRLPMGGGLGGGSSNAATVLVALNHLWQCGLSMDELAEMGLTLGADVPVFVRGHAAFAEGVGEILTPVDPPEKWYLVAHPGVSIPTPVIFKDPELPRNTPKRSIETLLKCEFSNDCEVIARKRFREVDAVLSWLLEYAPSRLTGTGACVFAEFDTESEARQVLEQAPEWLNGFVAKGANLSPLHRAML

[3] = tested on: E. coli K12; test: Growth inhibition of E. coli K12; format: cell-based; settings: Escherichia coli
[4] = tested on: PfNF54; test: Whole-cell assay, [3H]-hypoxanthine incorporation; format: cell-based, Plasmodium falciparum; settings: mean ± SD, n.a. = absence of activity
Method: After incubation for 48 h, 0.25 μCi of [^3H]-hypoxanthine was added per well and plates were incubated for an additional 24 h.

[5] = tested on: IspD; settings: cited from earlier work
[6] = tested on: Pf3D7 (WT) and MMV008138 resistant parasites (R2 and R3); test: IDP rescue assay; format: cell-based, Plasmodium falciparum; settings: 200 μM IDP, 72 h
Method: The parasite growth was quantified by measuring DNA content using PicoGreen assay (Invitrogen). IC50 values were calculated by nonlinear regression analysis using GraphPad Prism software and reflect the mean ± standard error of the mean (SEM) from at least three independent experiments. Statistical comparison of the values was done via one-way ANOVA.

[7] = tested on: Mtb H37Rv mCherry 10 strain; test: MIC 90 against Mtb H37Rv mCherry 10 strain; format: cell-based; settings: Mycobacterium tuberculosis, read-out: MIC 90 (growth inhibition) of Mtb H37Rv mCherry 10 strain
[8] = molecular target: T1, PfIspD (Plasmodium falciparum, UniProt Q8I273); test: Photometric in vitro PfIspD assay; format: biochemical; settings: mean ± SD, n ≥ 2; n.a. = absence of activity
T1 sequence (Q8I273 1-734): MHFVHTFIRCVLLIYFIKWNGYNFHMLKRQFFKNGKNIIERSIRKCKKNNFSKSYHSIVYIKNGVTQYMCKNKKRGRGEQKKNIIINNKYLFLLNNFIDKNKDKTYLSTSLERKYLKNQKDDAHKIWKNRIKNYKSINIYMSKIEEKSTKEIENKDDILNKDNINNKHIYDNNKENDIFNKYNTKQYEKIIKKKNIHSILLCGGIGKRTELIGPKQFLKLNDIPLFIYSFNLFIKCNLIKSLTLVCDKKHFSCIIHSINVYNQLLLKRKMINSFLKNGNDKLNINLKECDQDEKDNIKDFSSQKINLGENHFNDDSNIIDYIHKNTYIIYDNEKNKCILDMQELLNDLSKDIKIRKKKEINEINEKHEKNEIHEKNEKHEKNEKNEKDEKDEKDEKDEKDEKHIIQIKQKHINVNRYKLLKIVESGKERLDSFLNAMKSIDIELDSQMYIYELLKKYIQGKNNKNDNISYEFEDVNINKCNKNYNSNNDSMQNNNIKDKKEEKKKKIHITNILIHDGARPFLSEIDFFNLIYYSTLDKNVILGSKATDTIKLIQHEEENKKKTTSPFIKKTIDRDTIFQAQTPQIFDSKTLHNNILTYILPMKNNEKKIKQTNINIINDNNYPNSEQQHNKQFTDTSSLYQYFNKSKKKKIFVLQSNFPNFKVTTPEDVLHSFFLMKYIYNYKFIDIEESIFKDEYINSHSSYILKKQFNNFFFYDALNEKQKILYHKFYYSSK
Method: Dilution series (1:2) of inhibitors in DMSO covered the concentration range of approximately 200–0.01 μM. After finishing the dilution series, the final volume of compound solution in DMSO per well was 3 μL. For the IspD assay, 30 μL aliquots of a solution containing 100 mM Tris-HCl, pH 7.6, 0.02% NaN3, 1 mM MEP and 1 mM CTP were added to microplate wells preloaded with 3 μL of DMSO containing test compounds. […] Initial rates were estimated using Softmax Pro 6.1 software (Molecular Devices, Biberach an der Riss, Germany). IC50 values were determined with a nonlinear regression method using the program Dynafit.[21]

[9] = tested on: malaria; parameters: method as in Fernandes et al. [6]−[8]; settings: children, combination therapy, meta-analysis ref Fernandes et al. [6]−[8]; cited from earlier work
[10] = molecular target: T1, PfIspD; test: Determination of enzyme kinetics, LC-MS based IspD assay; format: biochemical; settings: our results, n = 2, mean ± SD; read-out: Km^CTP
Method: (§1) A volume of 80 μL Buffer A containing 100 mM Tris-HCl pH 7.6, 1 mM DTT, 1 mM MgCl2, 50 nM PfIspD were added to well A1 96-well plate while 50 μL were added to the rest of the wells. A volume of 20 μL of 10 mM CTP was added to the first well, then a serial dilution was conducted by moving 50 μL. To start the reaction, we then added on buffer A 50 μL of Buffer B containing 100 mM Tris-HCl pH 7.6, 1 mM DTT, and 1 mM MEP. The assay plate was incubated at 37 °C for 40 min, after which, the protein was denaturated by heating up the plate to 95 °C for 5 min. The plate was then centrifuged at 4000 rpm at 4 °C for 5 min to precipitate the protein. […] Thereafter, 10 μL of each of the supernatants from the assay plate were added to the plate containing the mixture with our internal standard. The plate was centrifuged again at 4000 rpm at 4 °C for 5 min, after which, 50 μL of the supernatant was transferred to an LC-MS plate and closed with a silicon cover. LC-MS conditions and data analysis methods we used were described above. The peak area for each conditions were used to calculate the Michaelis–Menten kinetic parameters using Graphpad Prism v 9. Measurements were performed in duplicates, repeated at least two times from two to three independent experiments.

[11] = substrate: C[C@](O)(CO)[C@H](O)COP(=O)(O)O; test: as above; format: biochemical, Plasmodium falciparum; settings: other: our results, n = 2, mean ± SD; pH 7.6
Method: as §1

## COC(=O)c1ccc(NC(=O)Nc2cccc(S(=O)(=O)N3CCCC3)c2)cc1 [Compound 7, Methyl 4-(3-(3-(Pyrrolidin-1-ylsulfonyl)phenyl)ureido)benzoate]
[1]
  IC50: 242 ± 72 µM
[2]
  IC50: > 500 µM

## O=C(Nc1ccc([N+](=O)[O-])cc1)Nc1cccc(S(=O)(=O)N2CCCC2)c1 [Compound 8, 1-(4-Nitrophenyl)-3-(3-(pyrrolidin-1-ylsulfonyl)phenyl)urea]
[3]
  inhibition at 100 µM: 14 ± 5%

## Nc1ccc(NC(=O)Nc2cccc(S(=O)(=O)N3CCCC3)c2)cc1 [Compound 4, 1-(4-Aminophenyl)-3-(3-(pyrrolidin-1-ylsulfonyl)phenyl)urea]
[4]
  PfNF54 (IC50 μM): lacking whole-cell activity

## C[C@](O)(CO)[C@H](O)COP(=O)(O)O [MEP, 2-C-methylerythritol-D-erythritol-4-phosphate]
[5]; ref Ghavami et al.[18], read-out: Km^MEP
  Km: 12 ± 3 µM
[5]; ref Wu et al.[14], read-out: Km^MEP
  Km: 61 µM

## N#Cc1ccc(NC(=O)Nc2cccc(S(=O)(=O)N3CCCC3)c2)cc1 [Compound 10, 1-(4-Cyanophenyl)-3-(3-(pyrrolidin-1-ylsulfonyl)phenyl)urea]
[3]
  inhibition at 100 µM: 46 ± 4%
[6]
  effect of IDP supplementation on sensitivity: equalized the sensitivity of the resistant strains and the wild type
[7]
  MIC90: 64 µM (≈ 23.7 µg/mL)

## O=C(Nc1ccc([N+](=O)[O-])cc1)Nc1cccc(S(=O)(=O)N2CCOCC2)c1 [Compound 27, 1-(3-(Morpholinosulfonyl)phenyl)-3-(4-nitrophenyl)urea]
[1]
  IC50: 104 ± 19 µM
[2]
  IC50: > 500 µM

## O=C(Nc1ccc(C(F)(F)F)cc1)Nc1cccc(S(=O)(=O)N2CCCC2)c1 [Compound 11, 1-(3-(Pyrrolidin-1-ylsulfonyl)phenyl)-3-(4-(trifluoromethyl)phenyl)urea]
[1]
  IC50: 73 ± 15 µM
[2]; auxiliary enzyme, read-out: EcIspE (IC50 µM)
  IC50: 73 ± 15 µM

## 1-(4-Methyl-3-(morpholinosulfonyl)phenyl)-3-(4-nitrophenyl)urea [Compound 33]
[8]
  IC50: > 10000 nM

## O=C(Nc1ccc([N+](=O)[O-])cc1)Nc1ccc(F)c(S(=O)(=O)N2CCOCC2)c1 [Compound 31, 1-(4-Fluoro-3-(morpholinosulfonyl)phenyl)-3-(4-nitrophenyl)urea]
[1]
  IC50: > 500 µM
[2]
  IC50: 75 ± 11 µM

## O=CN(O)CCCP(=O)(O)O [fosmidomycin]
[9]
  cure rate: 85%

## CS(=O)(=O)c1ccc(NC(=O)Nc2cccc(S(=O)(=O)N3CCCC3)c2)cc1 [Compound 9, 1-(4-(Methylsulfonyl)phenyl)-3-(3-(pyrrolidin-1-ylsulfonyl)phenyl)urea]
[1]
  IC50: > 500 µM
[2]
  IC50: > 500 µM

## Nc1ccn([C@@H]2O[C@H](COP(=O)(O)OP(=O)(O)OP(=O)(O)O)[C@@H](O)[C@H]2O)c(=O)n1 [CTP, cytidine triphosphate]
[5]; ref Ghavami et al.[18], read-out: Km^CTP
  Km: 9 ± 3 µM
[5]; ref Imlay et al.[12], read-out: Km^CTP
  Km: 59 ± 4 µM
[10]
  Km: 58 ± 9 µM

## O=C(Nc1ccc(Cl)cc1)Nc1cccc(S(=O)(=O)N2CCCC2)c1 [Compound 5, 1-(4-Chlorophenyl)-3-(3-(pyrrolidin-1-ylsulfonyl)phenyl)urea]
[3]
  inhibition at 100 µM: 45 ± 6%

## O=C(Nc1ccc([N+](=O)[O-])cc1)Nc1cccc(S(=O)(=O)N2CCCCC2)c1 [Compound 26, 1-(4-Nitrophenyl)-3-(3-(piperidin-1-ylsulfonyl)phenyl)urea]
[1]
  IC50: > 500 µM
[2]
  IC50: 49 ± 7 µM

B1: PfIspD (Plasmodium falciparum 3D7) (protein)
chain: T1 sequence (Q8I273 1-734)
[11]
  Km: 46 ± 3 µM
